Source: patent US20260124170A1, “PHARMACEUTICAL COMPOSITION COMPRISING METABOLITE OF ENAVOGLIFLOZIN, AND USE THEREOF” (DAEWOONG PHARMACEUTICAL CO., LTD., priority 2022, published 2026)

What was measured:
SGLT1 [1] = target: T1, SGLT1 (Homo sapiens, UniProt P13866); assay: Change in SGLT1 inhibition according to drug pretreatment time (CHO-SGLT1); assay type: cell-based; details: pretreatment 0, 1, 2 h; one-way ANOVA
T1 construct: expressed in transfected cells
T1 sequence (P13866 1-664): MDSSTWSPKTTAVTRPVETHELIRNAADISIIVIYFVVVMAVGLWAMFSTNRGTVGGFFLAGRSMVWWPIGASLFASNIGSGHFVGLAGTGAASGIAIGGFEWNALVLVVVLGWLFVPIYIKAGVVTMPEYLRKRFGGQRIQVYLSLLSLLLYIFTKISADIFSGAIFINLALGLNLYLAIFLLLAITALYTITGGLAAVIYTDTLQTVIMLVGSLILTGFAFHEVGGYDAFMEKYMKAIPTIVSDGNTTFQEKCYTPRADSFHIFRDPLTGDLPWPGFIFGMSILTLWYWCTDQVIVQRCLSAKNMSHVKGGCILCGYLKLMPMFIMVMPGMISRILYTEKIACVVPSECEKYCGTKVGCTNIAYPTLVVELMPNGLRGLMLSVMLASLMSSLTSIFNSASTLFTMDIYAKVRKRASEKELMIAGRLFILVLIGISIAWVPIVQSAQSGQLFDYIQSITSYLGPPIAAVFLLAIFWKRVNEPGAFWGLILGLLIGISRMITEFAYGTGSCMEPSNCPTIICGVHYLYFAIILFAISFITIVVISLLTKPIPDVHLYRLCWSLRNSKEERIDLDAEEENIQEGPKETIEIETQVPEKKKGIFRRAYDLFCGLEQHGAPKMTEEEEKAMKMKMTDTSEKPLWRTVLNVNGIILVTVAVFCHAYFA
From the text: (§1) All data values are expressed as the mean±SD of […].

SGLT2 [2] = target: T2, SGLT2 (Homo sapiens, UniProt P31639); assay: Inhibition of [14C]AMG uptake in SGLT2-overexpressing CHO cells; assay type: cell-based; details: CHO-SGLT2 cells, 10 μM [14C]AMG, 2 h, 37° C.
T2 construct: expressed in transfected cells
T2 sequence (P31639 1-672): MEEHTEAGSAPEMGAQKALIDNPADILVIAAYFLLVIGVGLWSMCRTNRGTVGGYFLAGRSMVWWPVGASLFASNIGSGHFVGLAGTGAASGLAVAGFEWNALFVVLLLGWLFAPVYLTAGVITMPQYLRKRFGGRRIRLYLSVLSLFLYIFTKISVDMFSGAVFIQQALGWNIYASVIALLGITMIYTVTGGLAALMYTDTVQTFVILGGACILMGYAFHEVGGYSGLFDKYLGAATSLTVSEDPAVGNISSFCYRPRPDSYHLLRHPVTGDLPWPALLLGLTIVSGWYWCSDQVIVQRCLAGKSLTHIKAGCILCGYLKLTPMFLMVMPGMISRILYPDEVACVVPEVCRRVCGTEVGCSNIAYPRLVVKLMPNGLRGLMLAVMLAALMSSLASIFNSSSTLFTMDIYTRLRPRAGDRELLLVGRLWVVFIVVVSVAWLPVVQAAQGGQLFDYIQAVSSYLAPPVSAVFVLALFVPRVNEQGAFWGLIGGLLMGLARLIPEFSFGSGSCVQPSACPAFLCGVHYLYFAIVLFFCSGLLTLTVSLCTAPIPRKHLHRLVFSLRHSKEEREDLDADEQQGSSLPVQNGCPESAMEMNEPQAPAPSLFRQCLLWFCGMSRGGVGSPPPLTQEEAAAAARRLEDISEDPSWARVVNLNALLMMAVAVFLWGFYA
Method: The evaluation was performed in the same manner as the evaluation of SGLT1 inhibition, except that an SGLT2-overexpressing cell line (CHO-SGLT2 stable cells) was used, and the inhibitory evaluation substances described below were used.

SGLT1 [3] = target: T1, SGLT1; assay: SGLT1 inhibition with varied substrate AMG concentration (Dixon / L-B plot); assay type: cell-based; details: CHO-SGLT1, varied AMG concentration
Method: (§3) From these, the inhibition mechanism was confirmed, and the inhibition constant was calculated.

SGLT2 [4] = target: T2, SGLT2; assay: SGLT2 inhibition with varied substrate AMG concentration (Dixon / L-B plot); assay type: cell-based
Method: as §3

SGLT2 [5] = target: T2, SGLT2; assay: Change in SGLT2 inhibition according to drug pretreatment time (CHO-SGLT2); assay type: cell-based; details: for IC50: CHO-SGLT2
From the text: as §1

[6] = test system: STZ-induced type 1 diabetic rats; assay: Oral glucose tolerance test in type 1 diabetic rat model; assay type: in vivo; details: STZ rats, 1 mg/kg, glucose 2 g/kg oral
Method: (§2) STZ was administered to Sprague Dawley (SD) male 5-week-old rats on day 0 (G2 to G7, excluding G1), and non-fasting blood glucose levels were measured on day 3 to determine whether type 1 diabetes was induced. On day 7, the experimental substances were administered to each group, and blood and urine samples were collected at 6 h, 24 h, 48 h, and 72 h to measure non-fasting blood glucose levels. On day 14 of the experiment, the experimental animals were fasted for 16 h, and on day 15, 2 g/kg of glucose solution was orally administered after the experimental substances were administered. Thereafter, blood glucose levels were measured at 15, 30, 60, 90, and 120 minutes after glucose administration. After blood collection, the serum was separated, and the IL-6 inflammatory response was evaluated using an interleukin-6 (IL-6) enzyme-linked immunosorbent assay (ELISA) kit.

interleukin-6 (IL-6) = assay: Serum IL-6 ELISA in type 1 diabetic rat model; assay type: in vivo; details: STZ rats, 6, 24, 48, 72 hours after administration
Method: as §2

OC[C@H]1O[C@@H](c2ccc(Cl)c(Cc3ccc(O[C@H]4CCOC4)cc3)c2)[C@H](O)[C@@H](O)[C@@H]1O [Empagliflozin] was tested, and the “Change in SGLT1 inhibition as exposure time increased” value (SGLT1 [1]) was “did not show any significant change or increase in inhibition”, the IC50 (SGLT2 [2]) was 6.65 ± 2.92 nM and the “Inhibition mechanism, SGLT1” value (SGLT1 [3]) was “Competitive inhibition”. For the same compound, the “Inhibition mechanism, SGLT2” value (SGLT2 [4]; CHO-SGLT2, varied AMG concentration) was “Competitive inhibition”, the Ki (SGLT2 [4]; from slope of L-B plot, CHO-SGLT2) was 5.15 nM and the IC50 (SGLT2 [5]; IC50 according to pretreatment time (nM), SGLT2, 1 h, 1 h pretreatment in sodium-free buffer) was 6.67 ± 1.29 nM. The IC50 (SGLT2 [5]; IC50 according to pretreatment time (nM), SGLT2, 2 h, 2 h pretreatment in sodium-free buffer) was 7.35 ± 0.82 nM, the IC50 (SGLT2 [5]; no pretreatment, read-out: IC50 according to pretreatment time (nM), SGLT2, 0 h) was 7.2 ± 2.33 nM and the “Change in SGLT2 inhibition as exposure time increased” value (SGLT2 [5]; pretreatment 0, 1, 2 h, one-way ANOVA) was “did not increase or significantly change”.

For CCOc1ccc(Cc2cc([C@@H]3O[C@H](SC)[C@@H](O)[C@H](O)[C@H]3O)ccc2Cl)cc1 [Sotagliflozin], the “Blood glucose level in OGTT” value [6] was “lowering of the blood glucose level was observed” and the “Change in IL-6 level” value (interleukin-6 (IL-6)) was “slight decrease”.
